In brackets after ≈: the same amount, converted by molar mass.
What follows are molecules tested on HCV replicon I389luc-ubi-neo/NS3-3'/5.1 (assay: Anti-HCV replicon assay (luciferase activity) in Huh-5-2 cells). Details: Hepatitis C virus, Huh-5-2, 72 h, concentration required to inhibit luciferase activity in the replicon system by 50%.
Assay type: cell-based, Hepatitis C virus
Experimental: Cells were seeded at a density of 7000 cells per well in 96 well View Plate™ (Packard) in medium containing the same components as described above, except for G418. Cells were allowed to adhere and proliferate for 24 hr. At that time, culture medium was removed and serial dilutions of the test compounds were added in culture medium lacking G418. Interferon alfa 2a (500 IU) was included as a positive control. Plates were further incubated at 37° C. and 5% CO2 for 72 hours. Replication of the HCV replicon in Huh-5 cells results in luciferase activity in the cells. Luciferase activity is measured by adding 50 μl of 1×Glo-lysis buffer (Promega) for 15 minutes followed by 50 ul of the Steady-Glo Luciferase assay reagent (Promega). Luciferase activity is measured with a luminometer and the signal in each individual well is expressed as a percentage of the untreated cultures. […] Instead the density of the culture is measured by means of the MTS method (Promega).
With `COCCN1C(=O)c2cc([N+](=O)[O-])ccc2C(C(=O)Nc2cccc(OC)c2)C1c1cccs1` (stereo not drawn) [C3, 2-(2-methoxyethyl)-N-(3-methoxyphenyl)-7-nitro-1-oxo-3-(thiophen-2-yl)-1,2,3,4-tetrahydroisoquinoline-4-carboxamide] the IC50 was 40.9 µg/mL (≈ 84.9 µM). For `CCN1CCC[C@H]1CN1C(=O)c2ccccc2C(C(=O)Nc2cccc(OC)c2)C1c1cccs1` (stereo partly drawn) [C74, 2-(((S)-1-ethylpyrrolidin-2-yl)methyl)-N-(3-methoxyphenyl)-1-oxo-3-(thiophen-2-yl)-1,2,3,4-tetrahydroisoquinoline-4-carboxamide], the IC50 was 36 µg/mL (≈ 73.4 µM). `COCCN1C(=O)c2ccc(F)cc2C(C(=O)Nc2cccc(OC)c2)C1c1cccs1` (stereo not drawn) [C77, 6-fluoro-2-(2-methoxyethyl)-N-(3-methoxyphenyl)-1-oxo-3-(thiophen-2-yl)-1,2,3,4-tetrahydroisoquinoline-4-carboxamide] gave an IC50 of 11.2 µg/mL (≈ 24.7 µM). `COCCN1C(=O)c2ccccc2C(C(=O)Nc2cccc(-n3cccc3)c2)C1c1cccs1` (stereo not drawn) [C115, N-(3-(1H-pyrrol-1-yl)phenyl)-2-(2-methoxyethyl)-1-oxo-3-(thiophen-2-yl)-1,2,3,4-tetrahydroisoquinoline-4-carboxamide] gave an IC50 of 0.29 µg/mL (≈ 0.615 µM). Molecule `COCCN1C(=O)c2ccccc2C(C(=O)O)C1c1cccs1` (stereo not drawn) [C36, 2-(2-methoxyethyl)-1-oxo-3-(thiophen-2-yl)-1,2,3,4-tetrahydroisoquinoline-4-carboxylic acid] has an IC50 of 47.1 µg/mL (≈ 142 µM). `COCCN1C(=O)c2ccccc2C(C(=O)Nc2ccccc2-c2ccccc2)C1c1cccs1` (stereo not drawn) [C84, N-(biphenyl-2-yl)-2-(2-methoxyethyl)-1-oxo-3-(thiophen-2-yl)-1,2,3,4-tetrahydroisoquinoline-4-carboxamide] showed an IC50 of 12 µg/mL (≈ 24.9 µM). `COCCN1C(=O)c2ccccc2C(C(=O)Nc2ccncn2)C1c1cccs1` (stereo not drawn) [C162, 2-(2-methoxyethyl)-1-oxo-N-(pyrimidin-4-yl)-3-(thiophen-2-yl)-1,2,3,4-tetrahydroisoquinoline-4-carboxamide] showed an IC50 of 3.56 µg/mL (≈ 8.72 µM). Work on `COCCN1C(=O)c2ccccc2C(C(=O)Nc2ccc(Oc3ccccc3)nc2)C1c1cccs1` (stereo not drawn) [C158, 2-(2-methoxyethyl)-1-oxo-N-(6-phenoxypyridin-3-yl)-3-(thiophen-2-yl)-1,2,3,4-tetrahydroisoquinoline-4-carboxamide] yielded an IC50 of 0.04 µg/mL (≈ 0.0801 µM). Molecule `COCCN1C(=O)c2c(F)ccc(F)c2C(C(=O)Nc2cccc(OC)c2)C1c1cccs1` (stereo not drawn) [C91, 5,8-difluoro-2-(2-methoxyethyl)-N-(3-methoxyphenyl)-1-oxo-3-(thiophen-2-yl)-1,2,3,4-tetrahydroisoquinoline-4-carboxamide] has an IC50 of 0.32 µg/mL (≈ 0.677 µM). `COCCN1C(=O)c2ccccc2C(C(=O)Nc2cccc(OC)c2)C1c1ccccc1` (stereo not drawn) [C28, 2-(2-Methoxyethyl)-N-(3-methoxyphenyl)-1-oxo-3-phenyl-1,2,3,4-tetrahydroisoquinoline-4-carboxamide] showed an IC50 of 38.8 µg/mL (≈ 90 µM). `COCCN1C(=O)c2ccccc2C(C(=O)Nc2cc(C)nn2C)C1c1cccs1` (stereo not drawn) [C109, N-(1,3-dimethyl-1H-pyrazol-5-yl)-2-(2-methoxyethyl)-1-oxo-3-(thiophen-2-yl)-1,2,3,4-tetrahydroisoquinoline-4-carboxamide] was tested, and the IC50 was 43.4 µg/mL (≈ 102 µM). Work on `CCCCN1C(=O)c2ccccc2C(C(=O)Nc2cccc(OC)c2)C1c1cccs1` (stereo not drawn) [C16, 2-Butyl-N-(3-methoxyphenyl)-1-oxo-3-(thiophen-2-yl)-1,2,3,4-tetrahydroisoquinoline-4-carboxamide] yielded an IC50 of 1.1 µg/mL (≈ 2.53 µM). `COc1cccc(NC(=O)C2c3ccccc3C(=O)N(CCN(C)C)C2c2cccs2)c1` (stereo not drawn) [C15, 2-(2-(Dimethylamino)ethyl)-N-(3-methoxyphenyl)-1-oxo-3-(thiophen-2-yl)-1,2,3,4-tetrahydroisoquinoline-4-carboxamide] was tested, and the IC50 was 11.8 µg/mL (≈ 26.3 µM). For `COCCN1C(=O)c2ccccc2C(C(=O)Nc2nc(-c3ccccc3)ns2)C1c1cccs1` (stereo not drawn) [C194, 2-(2-methoxyethyl)-1-oxo-N-(3-phenyl-1,2,4-thiadiazol-5-yl)-3-(thiophen-2-yl)-1,2,3,4-tetrahydroisoquinoline-4-carboxamide], the IC50 was 0.019 µg/mL (≈ 0.0387 µM). In the case of `COCCN1C(=O)c2ccccc2C(C(=O)Nc2ccc(N3CCOCC3)cc2)C1c1cccs1` (stereo not drawn) [C121, 2-(2-methoxyethyl)-N-(4-morpholinophenyl)-1-oxo-3-(thiophen-2-yl)-1,2,3,4-tetrahydroisoquinoline-4-carboxamide], the IC50 is reported as 1.06 µg/mL (≈ 2.16 µM). In the case of `COc1cccc(NC(=O)C2c3ccccc3C(=O)N(CCSC)C2c2cccs2)c1` (stereo not drawn) [C63, N-(3-methoxyphenyl)-2-(2-(methylthio)ethyl)-1-oxo-3-(thiophen-2-yl)-1,2,3,4-tetrahydroisoquinoline-4-carboxamide], the IC50 is reported as 3.21 µg/mL (≈ 7.09 µM). Molecule `COCCN1C(=O)c2ccccc2C(C(=O)Nc2ccc3[nH]ncc3c2)C1c1cccs1` (stereo not drawn) [C132, N-(1H-indazol-5-yl)-2-(2-methoxyethyl)-1-oxo-3-(thiophen-2-yl)-1,2,3,4-tetrahydroisoquinoline-4-carboxamide] has an IC50 of 1 µg/mL (≈ 2.24 µM). In the case of `COCCN1C(=O)c2ccccc2C(C(=O)Nc2ccc(NC(C)=O)cc2)C1c1cccs1` (stereo not drawn) [C129, N-(4-acetamidophenyl)-2-(2-methoxyethyl)-1-oxo-3-(thiophen-2-yl)-1,2,3,4-tetrahydroisoquinoline-4-carboxamide], the IC50 is reported as 6.66 µg/mL (≈ 14.4 µM). For `COCCN1C(=O)c2ccccc2C(C(=O)Nc2ccc(F)c(Cl)c2)C1c1cccs1` (stereo not drawn) [C94, N-(3-chloro-4-fluorophenyl)-2-(2-methoxyethyl)-1-oxo-3-(thiophen-2-yl)-1,2,3,4-tetrahydroisoquinoline-4-carboxamide], the IC50 was 0.25 µg/mL (≈ 0.545 µM). Molecule `COCCN1C(=O)c2ccccc2C(C(=O)Nc2cccc(C)c2)C1c1cccs1` (stereo not drawn) [C85, 2-(2-methoxyethyl)-1-oxo-3-(thiophen-2-yl)-N-m-tolyl-1,2,3,4-tetrahydroisoquinoline-4-carboxamide] has an IC50 of 0.18 µg/mL (≈ 0.428 µM). Work on `COCCN1C(=O)c2ccccc2C(C(=O)Nc2ccc(CN3CCOCC3)cc2)C1c1cccs1` (stereo not drawn) [C188, 2-(2-methoxyethyl)-N-(4-(morpholinomethyl)phenyl)-1-oxo-3-(thiophen-2-yl)-1,2,3,4-tetrahydroisoquinoline-4-carboxamide] yielded an IC50 of 0.1 µg/mL (≈ 0.198 µM). In the case of `COCCN1C(=O)c2ccccc2C(C(=O)Nc2ccc(C(=O)OC)c(OC)c2)C1c1cccs1` (stereo not drawn) [C114, methyl 2-methoxy-4-(2-(2-methoxyethyl)-1-oxo-3-(thiophen-2-yl)-1,2,3,4-tetrahydroisoquinoline-4-carboxamido)benzoate], the IC50 is reported as 0.47 µg/mL (≈ 0.95 µM). `COc1cccc(NC(=O)C2c3ccccc3C(=O)N(CC3CCCCC3)C2c2cccs2)c1` (stereo not drawn) [C22, 2-(Cyclohexylmethyl)-N-(3-methoxyphenyl)-1-oxo-3-(thiophen-2-yl)-1,2,3,4-tetrahydroisoquinoline-4-carboxamide] showed an IC50 of 4.09 µg/mL (≈ 8.62 µM). With `COCCN1C(=O)c2ccccc2C(C(=O)Nc2cccc(-c3cnco3)c2)C1c1cccs1` (stereo not drawn) [C210, 2-(2-methoxyethyl)-N-(3-(oxazol-5-yl)phenyl)-1-oxo-3-(thiophen-2-yl)-1,2,3,4-tetrahydroisoquinoline-4-carboxamide] the IC50 was 0.072 µg/mL (≈ 0.152 µM). `COCCN1C(=O)c2c(C)cccc2C(C(=O)Nc2cccc(OC)c2)C1c1cccs1` (stereo not drawn) [C42, 2-(2-Methoxyethyl)-N-(3-methoxyphenyl)-8-methyl-1-oxo-3-(thiophen-2-yl)-1,2,3,4-tetrahydroisoquinoline-4-carboxamide] gave an IC50 of 0.5 µg/mL (≈ 1.11 µM). Molecule `COCCN1C(=O)c2ccccc2C(C(=O)Nc2ccc(Cl)cn2)C1c1cccs1` (stereo not drawn) [C223, N-(5-chloropyridin-2-yl)-2-(2-methoxyethyl)-1-oxo-3-(thiophen-2-yl)-1,2,3,4-tetrahydroisoquinoline-4-carboxamide] has an IC50 of 1 µg/mL (≈ 2.26 µM). `COCCN1C(=O)c2ccccc2C(C(=O)Nc2cccc(OC)c2)C1c1ccnn1C` (stereo not drawn) [C105, 2-(2-methoxyethyl)-N-(3-methoxyphenyl)-3-(1-methyl-1H-pyrazol-5-yl)-1-oxo-1,2,3,4-tetrahydroisoquinoline-4-carboxamide] gave an IC50 of 50.5 µg/mL (≈ 116 µM). `COCCN1C(=O)c2ccccc2C(C(=O)Nc2nc(C)c(C)s2)C1c1cccs1` (stereo not drawn) [C156, N-(4,5-dimethylthiazol-2-yl)-2-(2-methoxyethyl)-1-oxo-3-(thiophen-2-yl)-1,2,3,4-tetrahydroisoquinoline-4-carboxamide] showed an IC50 of 37.4 µg/mL (≈ 84.7 µM). `COCCN1C(=O)c2ccccc2C(C(=O)Nc2cccc(OC)c2)C1c1ccc(C)s1` (stereo not drawn) [C12, 2-(2-Methoxyethyl)-N-(3-methoxyphenyl)-3-(5-methylthiophen-2-yl)-1-oxo-1,2,3,4-tetrahydroisoquinoline-4-carboxamide] gave an IC50 of 1.2 µg/mL (≈ 2.66 µM). Work on `COCCN1C(=O)c2ccccc2C(COCc2ccccc2)C1c1cccs1` (stereo not drawn) [C76, 4-(benzyloxymethyl)-2-(2-methoxyethyl)-3-(thiophen-2-yl)-3,4-dihydroisoquinolin-1(2H)-one] yielded an IC50 of 22 µg/mL (≈ 54.1 µM). With `COCCN1C(=O)c2ccccc2C(C(=O)Nc2ccc3c(c2)S(=O)(=O)C=C3)C1c1cccs1` (stereo not drawn) [C198, N-(1,1-dioxobenzo[b]thiophen-6-yl)-2-(2-methoxyethyl)-1-oxo-3-(thiophen-2-yl)-1,2,3,4-tetrahydroisoquinoline-4-carboxamide] the IC50 was 4 µg/mL (≈ 8.09 µM). Work on `COCCN1C(=O)c2ccccc2C(C(=O)Nc2ccc(-n3cccc3)c(C#N)c2)C1c1cccs1` (stereo not drawn) [C222, N-(3-cyano-4-(1H-pyrrol-1-yl)phenyl)-2-(2-methoxyethyl)-1-oxo-3-(thiophen-2-yl)-1,2,3,4-tetrahydroisoquinoline-4-carboxamide] yielded an IC50 of 0.21 µg/mL (≈ 0.423 µM). For `COCCN1C(=O)c2ccccc2C(C(=O)Nc2ccc3c(c2)CCN3C)C1c1cccs1` (stereo not drawn) [C176, 2-(2-methoxyethyl)-N-(1-methylindolin-5-yl)-1-oxo-3-(thiophen-2-yl)-1,2,3,4-tetrahydroisoquinoline-4-carboxamide], the IC50 was 0.48 µg/mL (≈ 1.04 µM).
